Read-outs that look alike come from different tables or passages of the source.
How the values were obtained:
[1] = biological target: T1, HIV-1 RT-associated RDDP activity (Human immunodeficiency virus type 1 group M subtype B, UniProt P04585); experiment: RDDP assay (Enz-Check Reverse Transcriptase Assay Kit); format: biochemical; conditions: for IC50: concentration required to inhibit the HIV-1 RDDP activity by 50%
T1 construct: His-tagged p66/p51 HIV-1 RT; His tag; made in house; host or cells: Escherichia coli strain M15
Procedure: (§1) His-tagged p66/p51 HIV-1 RT was expressed in Escherichia coli strain M15 as previously described. Full-length IN and LEDGF proteins were expressed in E. coli BL21 (DE3).
The HIV-1 RT-associated RDDP activity was measured using the Enz-Check Reverse Transcriptase Assay Kit (Life technologies, Carls- bad, California, USA), as previously described. The Yonetani-Theorell analysis was performed as previously reported.

HIV-1 virus NL(AD8) = experiment: Antiviral activity on HIV-1 (AD8) replication in TZM-bl cells (CPRG assay); format: cell-based; conditions: for EC50: read-out: EC50, HIV-1 (AD8) replication
Procedure: (§2) The human TZM-bl indicator cell line was obtained from the American Type Culture Collection (Manassas, VA) and maintained at 37°C and 5% CO2 in Dulbecco's modified Eagle's medium (DMEM) containing 10% fetal bovine serum, 50 μg/mLpenicillin, and 50 μg/mL streptomycin. The HIV-1 virus NL(AD8) was titrated as follows: serial 5-fold dilutions of the virus were made in quadruplicate wells in 96-well culture plates, in a total volume of 100 μL of growth medium, for a total of 8 dilution steps. Freshly trypsinized cells (20,000 cells in 100 μL of growth medium containing 75 μg/mL DEAE-dextran) were added to each well, and the plates were incubated at 37°C in a humidified 5% CO2-95% air environment. After 48 h of incubation, the medium was removed and viral infection was quantified using a β-galactosidase (CPRG) assay (Roche). Twenty thousand TZM-bl cells/well were seeded in 96-well plates in complete DMEM supplemented with 30 μg/mL DEAE-dextran (Sigma-Aldrich). Three hundred times the 50% tissue culture infective dose (TCID50)/mL of HIV AD8 strain and seven serial dilutions (range, 40.000 nM to 625 nM) of each compound were added to the cells, as previously described. Vehicle (0.1% dimethyl sulfoxide [DMSO])-treated cells served as a negative control. […] The TZM-bl indicator cell line has an integrated copy of the β-galactosidase gene under control of the HIV-1 promoter. Β-Galactosidase expression, measured by use of a chlorophenol red/β-D-galactopyranoside (CPRG) assay (Roche) in cell lysates 48 h post-infection was used as a marker of HIV infection. The inhibitory curves were fitted by nonlinear regression, allowing for the calculation of the 50% effective concentration (EC50) using the Prism software. To evaluate the cell toxicity of the compounds, the metabolic XTT [2,3-bis-(2-methoxy-4-nitro-5-sulfophenyl)-2H-tetrazolium-5-carboxanilide] test (Sigma-Aldrich) was performed according to the manufacturer's instructions.

[2] = biological target: T2, HIV-1 RT-associated RNase H activity (Human immunodeficiency virus type 1 group M subtype B, UniProt P04585); experiment: RNase H polymerase-independent cleavage assay; format: biochemical; conditions: for IC50: concentration required to inhibit the HIV-1 RNase H activity by 50%; for Inhibition of both HIV-1 RT-associated RNase H and RDDP functions (in words): maximum concentration tested 100 μM
T2 construct: His-tagged p66/p51 HIV-1 RT; His tag; made in house; host or cells: Escherichia coli strain M15
Procedure: as §1
The HIV-1 RT-associated RNase H activity was measured in 100 μL reaction volume containing 50 mM Tris–HCl, pH 7.8; 6 mM MgCl2; 1 mM dithiothreitol (DTT); 80 mM KCl; hybrid RNA/DNA (5′-[…]-3′-fluorescein, 5′-[…]-3′-Dabcyl); and 3.8 nM RT. The reaction mixture was incubated for 1 h at 37°C, the reaction was stopped by the addition of EDTA, and products were measured with a Victor 3 (Perkin) at 490/528 nm.

TZM-bl cells = experiment: Cell toxicity, metabolic XTT test; format: cell-based, human
Procedure: as §2

[3] = biological target: T3, HIV-1 IN in the presence of LEDGF/p75 (Human immunodeficiency virus type 1 group M subtype B, UniProt P04585); experiment: HTRF LEDGF dependent integrase assay; format: biochemical; conditions: for IC50: IN catalytic activities in the presence of LEDGF/p75
T3 construct: Full-length IN and LEDGF proteins were expressed in E. coli BL21 (DE3); made in house; host or cells: E. coli BL21 (DE3)
Procedure: as §1
The IN LEDGF/p75 dependent assay allowed to measure the inhibition of the 3’processing and strand transfer IN reactions in the presence of recombinant LEDGF/p75 protein, as previously described. Briefly, 50 nM IN was preincubated with increasing concentration of compounds for 1 hour at room temperature in reaction buffer containing 20 mM HEPES pH 7.5, 1 mM DTT, 1% Glycerol, 20 mM MgCl2, 0.05% Brij-35 and 0.1 mg/ml BSA. To this mixture, 9 nM DNA donor substrate (5’-[…]-Biotin-3’ annealed with 5’-[…]-Biotin3’) and 50 nM DNA acceptor substrate (5’-Cy5-[…]-3’ annealed with 5’-Cy5- […]-3’) and 50 nM LEDGF/p75 protein were added and incubated at 37°C for 90 minutes.

[4] = test system: env-pseudotyped HIV-1 virus (REJO4541 clone 67); format: cell-based; conditions: TZM-bl cells, 40-fold EC50 concentration
Procedure: In TOA experiment it is of fundamental importance that only one replication cycle has been completed to avoid confounding effects derived from unwashed viruses after 1 hour of infection. […] 40000 TZM-bl cells/well in a 96-multiwell plate were infected with 1500 X the TCID50 per mL of the env-pseudotyped HIV-1 virus in complete medium supplemented with DEAE-dextran (Sigma–Aldrich, 30 mg/mL). Virus was incubated with cells for 1 h at 4°C, and unbound virus was subsequently removed by extensive and repeated washing with phosphate-buffered saline (PBS) to synchronize the replication. […] After 2 days, viral infection was quantified using a CPRG assay (Roche) and was then normalized to untreated control cells.

[5] = Cell toxicity, metabolic XTT test; format: cell-based, human; conditions: human; TZM-bl cells, XTT; read-out: CC50, TZM-bl cell viability
Procedure: as §2

[6] = TZM-bl cells, 48 h post-infection
[7] = Human immunodeficiency virus 1, TZM-bl, 48 h

3-geranyl-1-(2'-methylbutanoyl)phloroglucinol [Compound 1]
IC50 [1]: 25.5 ± 8.8 µM
EC50 (HIV-1 virus NL(AD8); [6]): 3.5 µM
IC50 [2]: 4.3 ± 0.4 µM
CC50 (TZM-bl cells): > 50 µM
IC50 [3]: 7.3 ± 0.3 µM

3-geranyl-1-(2'-methylpropanoyl)phloroglucinol [Compound 2]
IC50 [1]: 12.3 ± 2.5 µM
EC50 (HIV-1 virus NL(AD8); [6]): 8 µM
IC50 [2]: 4.1 ± 0.1 µM
CC50 (TZM-bl cells): > 50 µM
IC50 [3]: 7.4 ± 0.4 µM

C=C(C)C(O)CC/C(C)=C/Cc1c(O)cc(O)c(C(=O)C(C)CC)c1O (stereo not drawn) [Compound 3, 3-(13-hydroxygeranyl)-1-(2'-methylbutanoyl)phloroglucinol]
IC50 [1]: 19.7 ± 3.5 µM
EC50 (HIV-1 virus NL(AD8); [7]): 3.5 µM
Time of addition after which antiviral activity is lost [4]: 4–5 hour post-infection
IC50 [2]: 9.1 ± 0.5 µM
CC50 [5]: > 50 µM
IC50 [3]: 13 ± 1 µM

Oc1cc(O)c(CC(O)C(O)c2ccc(O)c(O)c2)c(O)c1 [Compound 4, 1,3,5-benzentriol 2-[(2S,3R)-3-(3,4-dihydroxylphenyl)-2,3-dihydroxylpropyl]]
IC50 [1]: 92 ± 10 µM
EC50 (HIV-1 virus NL(AD8); [7]): > 40 µM
Inhibition of both HIV-1 RT-associated RNase H and RDDP functions (in words) [2]: weak inhibition
IC50 [2]: 93 ± 7 µM
IC50 [3]: 6.4 ± 0.7 µM

O=C(O)c1ccc(O)c(O)c1 [Compound 5, 3,4-dihydroxybenzoic acid]
remaining activity at 100 µM ([1]; 100 μM compound, read-out: Percentage of control RDDP activity in the presence of compound): 85%
IC50 [1]: > 100 µM
EC50 (HIV-1 virus NL(AD8); [7]): > 40 µM
remaining activity at 100 µM ([2]; 100 μM compound, read-out: Percentage of control RNase H activity in the presence of compound): 100%
Inhibition of both HIV-1 RT-associated RNase H and RDDP functions (in words) [2]: inactive
IC50 [2]: > 100 µM
remaining activity at 100 µM ([3]; 100 μM compound, in the presence of LEDGF, read-out: Percentage of control IN activity in the presence of compound): 97%
IC50 [3]: > 100 µM
HIV-1 IN inhibition (in words) ([3]; in presence of LEDGF/p75): not active

C[C@@H]1O[C@@H](Oc2c(-c3ccc(O)c(O)c3)oc3cc(O)cc(O)c3c2=O)[C@H](O)[C@H](O)[C@H]1O [Compound 6, quercitrin]
IC50 [1]: 9.7 ± 1.4 µM
EC50 (HIV-1 virus NL(AD8); [7]): > 40 µM
Effect on HIV-1 replication (in words) (HIV-1 virus NL(AD8); highest tested concentration, TZM-bl cells): did not exert any effect
Inhibition of both HIV-1 RT-associated RNase H and RDDP functions (in words) [2]: active in the low micromolar range
IC50 [2]: 6.3 ± 1 µM
IC50 [3]: 1.6 ± 0.16 µM
Fold more active on HIV-1 IN activity with respect to HIV-1 RNase H function ([3]; IN versus RNase H IC50): 4 fold

CCOC(=O)C(=O)CC(=O)/C=C/c1cccn1Cc1ccccc1Cl [RDS 1759, reference compound]
IC50 [2]: 7.3 ± 0.1 µM

Maraviroc [reference compound]
EC50 (HIV-1 virus NL(AD8); [6]): 0.07 µM

From paper PMC5877874, “Prenylated phloroglucinols from Hypericum scruglii, an endemic species of Sardinia (Italy), as new dual HIV-1 inhibitors effective on HIV-1 replication” (PLoS ONE, 2018)
